Assay results from the supplement of paper PMC11061612.

Legend:
Test in all cases: combination Emax (second highest fraction inhibited in the dose matrix, 72 h); higher = more inhibition; extreme values may be limits of the assay
[1] = tested on: ACHN (Kidney Carcinoma)
How it was run: (§1)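 Cell lines grown in DMEM/F12 or RPMI with 10% FBS were plated in 1536-well plates and held 24 hours at 37°C, 5% CO2 before 72 hours of exposure to two-drug dose matrices, with DMSO typically at 0.2%. CellTiter-Glo 2.0 luminescence gave viability, which was converted to inhibition. Vehicle wells were set to 0 and blank wells to 1. Combination Emax is the second-highest inhibition in the matrix, and Bliss excess is the observed combination effect minus the expected EA + EB − EA·EB, where EA and EB are the single-agent effects.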

[2] = tested on: AMO-1 (Plasma Cell Myeloma)
How it was run: as §1

[3] = tested on: BT-549 (Breast Carcinoma)
How it was run: as §1

[4] = tested on: C-4-I (Cervical Carcinoma)
How it was run: as §1

[5] = tested on: Caov-4 (Ovarian Carcinoma)
How it was run: as §1

[6] = tested on: HGC-27 (Gastric Carcinoma)
How it was run: as §1

[7] = tested on: KMOE-2 (Acute Myeloid Leukemia)
How it was run: as §1

[8] = tested on: KYSE-450 (Esophageal Squamous Cell Carcinoma)
How it was run: as §1

[9] = tested on: LU-65 (Non-Small Cell Lung Carcinoma)
How it was run: as §1

[10] = tested on: MIA-PaCa-2 (Pancreatic Carcinoma)
How it was run: as §1

[11] = tested on: MLMA (Other Blood Carcinomas)
How it was run: as §1

[12] = tested on: NB69 (Neuroblastoma)
How it was run: as §1

[13] = tested on: NCI-H1915 (Non-Small Cell Lung Carcinoma)
How it was run: as §1

[14] = tested on: NCI-H727 (Other Solid Carcinomas)
How it was run: as §1

[15] = tested on: OE19 (Esophageal Adenocarcinoma)
How it was run: as §1

[16] = tested on: OSC-20 (Oral Cavity Carcinoma)
How it was run: as §1

[17] = tested on: RF-48 (B-Cell Non-Hodgkin's Lymphoma)
How it was run: as §1

[18] = tested on: SW13 (Other Solid Carcinomas)
How it was run: as §1

[19] = tested on: TE-1 (Esophageal Squamous Cell Carcinoma)
How it was run: as §1

[20] = tested on: VA-ES-BJ (Other Solid Carcinomas)
How it was run: as §1

Compound | combination Emax [1] | combination Emax [2] | combination Emax [3] | combination Emax [4] | combination Emax [5] | combination Emax [6] | combination Emax [7] | combination Emax [8] | combination Emax [9] | combination Emax [10] | combination Emax [11] | combination Emax [12] | combination Emax [13] | combination Emax [14] | combination Emax [15] | combination Emax [16] | combination Emax [17] | combination Emax [18] | combination Emax [19] | combination Emax [20]
Cn1cnc2c(F)c(Nc3ccc(Br)cc3Cl)c(C(=O)NOCCO)cc21 [Selumetinib] + C[C@@H]1COCCN1C2=NC(=NC(=C2)C3(CC3)[S@](=N)(=O)C)C4=C5C=CNC5=NC=C4 [AZD6738] (first compound max 10 µM, 7x7, partner max 10 µM) | 0.804 | 0.885 | 0.464 | 0.908 | 0.76 | 0.734 | 1 | 0.356 | 0.808 | 0.686 | 0.596 | 0.999 | 0.701 | 0.652 | 0.606 | 0.295 | 0.371 | 0.628 | 0.585 | 0.714
Cn1cnc2c(F)c(Nc3ccc(Br)cc3Cl)c(C(=O)NOCCO)cc21 [Selumetinib] + CC(C)n1c(=O)n(C)c2cnc3cc(F)c(-c4ccc(OCCCN5CCCCC5)nc4)cc3c21 [AZD1390] (first compound max 10 µM, 7x7, partner max 0.3 µM) | 0.305 | 0.364 | 0.117 | 0.26 | 0.492 | 0.171 | 0.976 | 0.0763 | 0.598 | 0.535 | 0.23 | 0.836 | 0.641 | 0.614 | 0.128 | 0.12 | 0.119 | 0.401 | 0.384 | 0.129
COc1nnc2ccc(N3CCC(c4ccc(OCCN5CCN(C)C(=O)[C@H]5C)cc4)CC3)nn12 [AZD5153] + Cc1c2c(nn1C)CSCc1cc(n(C)n1)CSc1cc(c3ccccc3c1)OCCCc1c(C(=O)O)n(C)c3c-2c(Cl)ccc13 [AZD5991] (first compound max 1 µM, 7x7, partner max 1 µM) | 0.537 | 1 | 0.814 | 0.933 | 0.86 | 0.987 | 0.936 | 0.494 | 0.623 | 0.993 | 0.994 | 0.998 | 0.502 | 0.388 | 0.623 | 0.199 | 0.473 | 0.969 | 0.511 | 0.566
Cc1c2c(nn1C)CSCc1cc(n(C)n1)CSc1cc(c3ccccc3c1)OCCCc1c(C(=O)O)n(C)c3c-2c(Cl)ccc13 [AZD5991] + Cc1cc2ncnn2cc1Nc1ncc2c(n1)n(C1CCOCC1)c(=O)n2C [AZD7648] (first compound max 1 µM, 7x7, partner max 10 µM) | 0.246 | 1 | 0.329 | 1 | 0.57 | 0.603 | 0.74 | 0.268 | 0.397 | 0.354 | 0.439 | 0.779 | 0.3 | 0.277 | 0.424 | 0.257 | 0.262 | 0.861 | 0.599 | 0.221
Cc1c2c(nn1C)CSCc1cc(n(C)n1)CSc1cc(c3ccccc3c1)OCCCc1c(C(=O)O)n(C)c3c-2c(Cl)ccc13 [AZD5991] + C=CCn1c(=O)c2cnc(Nc3ccc(N4CCN(C)CC4)cc3)nc2n1-c1cccc(C(C)(C)O)n1 [AZD1775] (first compound max 1 µM, partner max 1 µM) | 0.938 | 1 | 0.811 | 1 | 0.928 | 0.626 | 0.992 | 0.763 | 0.586 | 0.711 | 0.952 | 0.944 | 0.649 | 0.358 | 0.722 | 0.346 | 0.605 | 0.881 | 0.89 | 0.6
Cc1c2c(nn1C)CSCc1cc(n(C)n1)CSc1cc(c3ccccc3c1)OCCCc1c(C(=O)O)n(C)c3c-2c(Cl)ccc13 [AZD5991] + C[C@@H]1COCCN1C2=NC(=NC(=C2)C3(CC3)[S@](=N)(=O)C)C4=C5C=CNC5=NC=C4 [AZD6738] (first compound max 1 µM, 7x7, partner max 10 µM) | 0.948 | 1 | 0.659 | 1 | 0.914 | 0.849 | 0.873 | 0.55 | 0.675 | 0.706 | 0.697 | 0.967 | 0.504 | 0.412 | 0.746 | 0.406 | 0.545 | 0.854 | 0.747 | 0.686
COc1cccc(OCCCN)c1-c1cc(Nc2cnc(C#N)cn2)n[nH]1 [Prexasertib] + CCc1c2c(nc3ccc(O)cc13)-c1cc3c(c(=O)n1C2)COC(=O)[C@]3(O)CC [SN-38] (first compound max 1 µM, 7x7, partner max 0.3 µM) | 0.931 | 0.968 | 0.864 | 0.999 | 1 | 0.994 | 0.999 | 0.996 | 0.926 | 0.999 | 0.948 | 1 | 0.89 | 0.696 | 0.956 | 0.735 | 0.804 | 0.996 | 0.902 | 0.914
CCN(CCO)CCCOc1ccc2c(Nc3cc(CC(=O)Nc4cccc(F)c4)[nH]n3)ncnc2c1 [AZD2811] + C[C@@H]1COCCN1C2=NC(=NC(=C2)C3(CC3)[S@](=N)(=O)C)C4=C5C=CNC5=NC=C4 [AZD6738] (first compound max 1 µM, 7x7, partner max 10 µM) | 0.905 | 0.859 | 0.487 | 0.841 | 0.784 | 0.802 | 0.615 | 0.63 | 0.668 | 0.644 | 0.684 | 0.815 | 0.325 | 0.559 | 0.864 | 0.449 | 0.462 | 0.537 | 0.449 | 0.696
CCN(CCO)CCCOc1ccc2c(Nc3cc(CC(=O)Nc4cccc(F)c4)[nH]n3)ncnc2c1 [AZD2811] + O=C(c1cc(Cc2n[nH]c(=O)c3ccccc23)ccc1F)N1CCN(C(=O)C2CC2)CC1 [Olaparib] (first compound max 1 µM, 7x7, partner max 10 µM) | 0.211 | 0.354 | 0.244 | 0.303 | 0.19 | 0.915 | 0.276 | 0.33 | 0.265 | 0.469 | 0.223 | 0.659 | 0.312 | 0.346 | 0.714 | 0.382 | 0.294 | 0.364 | 0.105 | 0.251
CN(C)CCCOc1ccc(-c2ccc3ncc4c(c3c2)n(C2CCOCC2)c(=O)n4C)cn1 [AZD0156] + C=CCn1c(=O)c2cnc(Nc3ccc(N4CCN(C)CC4)cc3)nc2n1-c1cccc(C(C)(C)O)n1 [AZD1775] (first compound max 1 µM, partner max 1 µM) | 0.933 | 0.827 | 0.613 | 0.755 | 0.753 | 0.499 | 0.854 | 0.583 | 0.639 | 0.595 | 0.908 | 0.877 | 0.563 | 0.333 | 0.427 | 0.233 | 0.602 | 0.147 | 0.627 | 0.381
C=CCn1c(=O)c2cnc(Nc3ccc(N4CCN(C)CC4)cc3)nc2n1-c1cccc(C(C)(C)O)n1 [AZD1775] + C1CN(CCC1(C(=O)N[C@@H](CCO)C2=CC=C(C=C2)Cl)N)C3=NC=NC4=C3C=CN4 [Capivasertib] (first compound max 3 µM, partner max 3 µM) | 0.825 | 0.945 | 0.638 | 0.97 | 0.754 | 0.886 | 0.938 | 0.843 | 0.815 | 0.585 | 0.894 | 0.942 | 0.657 | 0.667 | 0.717 | 0.619 | 0.86 | 0.586 | 0.732 | 0.645
Cc1c2c(nn1C)CSCc1cc(n(C)n1)CSc1cc(c3ccccc3c1)OCCCc1c(C(=O)O)n(C)c3c-2c(Cl)ccc13 [AZD5991] + CCN(CCO)CCCOc1ccc2c(Nc3cc(CC(=O)Nc4cccc(F)c4)[nH]n3)ncnc2c1 [AZD2811] (first compound max 1 µM, 7x7, partner max 1 µM) | 0.27 | 1 | 0.575 | 1 | 0.743 | 1 | 0.759 | 0.54 | 0.343 | 0.66 | 0.245 | 0.878 | 0.294 | 0.286 | 0.937 | 0.438 | 0.262 | 0.964 | 0.676 | 0.395
COc1cccc2c1C(=O)c1c(O)c3c(c(O)c1C2=O)C[C@@](O)(C(=O)CO)C[C@@H]3O[C@H]1C[C@H](N)[C@H](O)[C@H](C)O1 [Doxorubicin] + Cc1cc2ncnn2cc1Nc1ncc2c(n1)n(C1CCOCC1)c(=O)n2C [AZD7648] (first compound max 1 µM, 7x7, partner max 10 µM) | 0.913 | 0.973 | 0.441 | 0.971 | 0.913 | 0.928 | 0.911 | 0.801 | 0.889 | 0.949 | 0.893 | 0.91 | 0.486 | 0.147 | 0.514 | 0.563 | 0.836 | 0.874 | 0.736 | 0.758
